Laboratory results from the NIST ThermoML archive (doi:10.1016/j.jct.2014.01.008).
“And” between values parts separate entries of the source, which are not always exact repeats. Identical values can stand only once.

Columns and labels:
[1] = Liquid, Falling or rolling sphere viscometry
[2] = Solid-liquid equilibrium temperature; conditions: Crystal, visual observation

CCCCCCCCCCCCCCCCCCCC [eicosane]
[1]
Conditions	viscosity
325.8 K, 6700 kPa	3.184 mPa·s and 3.193 mPa·s
325.8 K, 14400 kPa	3.511 mPa·s and 3.528 mPa·s
325.8 K, 21300 kPa	3.828 mPa·s
325.8 K, 22300 kPa	3.908 mPa·s
325.8 K, 28700 kPa	4.25 mPa·s
325.8 K, 35500 kPa	4.642 mPa·s
429.3 K, 5500 kPa	0.837 mPa·s
429.3 K, 7400 kPa	0.858 mPa·s
429.3 K, 21800 kPa	1.029 mPa·s
429.3 K, 41800 kPa	1.262 mPa·s
429.3 K, 63000 kPa	1.498 mPa·s and 1.523 mPa·s
429.3 K, 83000 kPa	1.777 mPa·s
429.3 K, 103700 kPa	2.043 mPa·s
429.3 K, 125000 kPa	2.351 mPa·s
429.3 K, 144500 kPa	2.631 mPa·s
429.3 K, 144700 kPa	2.638 mPa·s
429.3 K, 167900 kPa	2.988 mPa·s
429.3 K, 187900 kPa	3.321 mPa·s
429.3 K, 208900 kPa	3.685 mPa·s
429.3 K, 228600 kPa	4.04 mPa·s
429.3 K, 243100 kPa	4.327 mPa·s
533.8 K, 6200 kPa	0.346 mPa·s
533.8 K, 22900 kPa	0.425 mPa·s
533.8 K, 43300 kPa	0.541 mPa·s
533.8 K, 43500 kPa	0.541 mPa·s
533.8 K, 63200 kPa	0.647 mPa·s
533.8 K, 84300 kPa	0.75 mPa·s
533.8 K, 104400 kPa	0.861 mPa·s
533.8 K, 125000 kPa	0.977 mPa·s
533.8 K, 146100 kPa	1.097 mPa·s
533.8 K, 165900 kPa	1.199 mPa·s
533.8 K, 187300 kPa	1.341 mPa·s
533.8 K, 208200 kPa	1.444 mPa·s
533.8 K, 228800 kPa	1.556 mPa·s

[2]
Conditions	Solid-liquid equilibrium temperature [K]
21600 kPa	315.6
61500 kPa	325.3
105500 kPa	334.8
153800 kPa	344.6
218800 kPa	355.9
263800 kPa	364.3

CCCCCCCCCCCCCCCCCC [octadecane]
[1]
Conditions	viscosity
325.6 K, 9800 kPa	2.598 mPa·s
325.6 K, 16400 kPa	2.778 mPa·s
325.6 K, 29600 kPa	3.247 mPa·s
325.6 K, 37200 kPa	3.568 mPa·s
325.6 K, 51000 kPa	4.157 mPa·s
325.6 K, 60500 kPa	4.578 mPa·s
325.6 K, 69000 kPa	4.98 mPa·s
325.6 K, 70800 kPa	5.095 mPa·s
428.9 K, 6800 kPa	0.685 mPa·s
428.9 K, 21900 kPa	0.831 mPa·s
428.9 K, 42100 kPa	1.023 mPa·s
428.9 K, 63400 kPa	1.232 mPa·s
428.9 K, 84300 kPa	1.446 mPa·s
428.9 K, 104900 kPa	1.649 mPa·s
428.9 K, 125500 kPa	1.878 mPa·s
428.9 K, 147800 kPa	2.125 mPa·s
428.9 K, 168000 kPa	2.392 mPa·s
428.9 K, 188600 kPa	2.65 mPa·s
428.9 K, 209600 kPa	2.928 mPa·s
428.9 K, 230000 kPa	3.207 mPa·s
428.9 K, 243100 kPa	3.396 mPa·s
533.9 K, 9200 kPa	0.303 mPa·s
533.9 K, 9500 kPa	0.305 mPa·s
533.9 K, 15200 kPa	0.336 mPa·s
533.9 K, 22500 kPa	0.38 mPa·s
533.9 K, 44600 kPa	0.497 mPa·s
533.9 K, 64000 kPa	0.579 mPa·s
533.9 K, 85700 kPa	0.686 mPa·s
533.9 K, 105900 kPa	0.784 mPa·s
533.9 K, 126600 kPa	0.88 mPa·s
533.9 K, 147600 kPa	0.975 mPa·s and 0.985 mPa·s
533.9 K, 167700 kPa	1.077 mPa·s
533.9 K, 188600 kPa	1.201 mPa·s
533.9 K, 209100 kPa	1.313 mPa·s
533.9 K, 229300 kPa	1.411 mPa·s
533.9 K, 242900 kPa	1.491 mPa·s

[2]
Conditions	Solid-liquid equilibrium temperature [K]
59900 kPa	315.2
102800 kPa	324.6
151000 kPa	334.8
205400 kPa	344.7
256400 kPa	354.2

CCCCCCCCCCCCCCCC [hexadecane]
[1]
Conditions	viscosity
303.9 K, 3300 kPa	2.826 mPa·s
303.9 K, 7300 kPa	2.959 mPa·s
303.9 K, 12900 kPa	3.184 mPa·s
303.9 K, 19000 kPa	3.454 mPa·s
303.9 K, 26800 kPa	3.793 mPa·s
303.9 K, 33600 kPa	4.107 mPa·s
325.7 K, 8100 kPa	1.943 mPa·s
325.7 K, 8300 kPa	1.956 mPa·s
325.7 K, 21500 kPa	2.263 mPa·s
325.7 K, 35600 kPa	2.675 mPa·s
325.7 K, 49300 kPa	3.067 mPa·s
325.7 K, 63600 kPa	3.55 mPa·s
325.7 K, 77500 kPa	4.056 mPa·s
325.7 K, 91800 kPa	4.625 mPa·s
325.7 K, 104100 kPa	5.179 mPa·s
325.7 K, 119200 kPa	5.865 mPa·s
325.7 K, 122700 kPa	6.07 mPa·s
429.1 K, 12800 kPa	0.582 mPa·s and 0.586 mPa·s
429.1 K, 22200 kPa	0.649 mPa·s
429.1 K, 22700 kPa	0.65 mPa·s
429.1 K, 35800 kPa	0.742 mPa·s
429.1 K, 70500 kPa	1.01 mPa·s
429.1 K, 91600 kPa	1.181 mPa·s
429.1 K, 118800 kPa	1.405 mPa·s
429.1 K, 140300 kPa	1.594 mPa·s
429.1 K, 167800 kPa	1.847 mPa·s
429.1 K, 188000 kPa	2.046 mPa·s
429.1 K, 222900 kPa	2.459 mPa·s
533.7 K, 14100 kPa	0.272 mPa·s
533.7 K, 14300 kPa	0.276 mPa·s
533.7 K, 29900 kPa	0.341 mPa·s
533.7 K, 30100 kPa	0.342 mPa·s
533.7 K, 50400 kPa	0.43 mPa·s
533.7 K, 50500 kPa	0.433 mPa·s
533.7 K, 77100 kPa	0.534 mPa·s
533.7 K, 104600 kPa	0.642 mPa·s
533.7 K, 125000 kPa	0.721 mPa·s
533.7 K, 152800 kPa	0.829 mPa·s
533.7 K, 188400 kPa	0.983 mPa·s
533.7 K, 210000 kPa	1.077 mPa·s
533.7 K, 226600 kPa	1.154 mPa·s

[2]
Conditions	Solid-liquid equilibrium temperature [K]
54300 kPa	303.6
106300 kPa	314.5
158900 kPa	325
210600 kPa	333.9
267700 kPa	344.4
